Data on 14 compounds can be found in patent publication US8268814B2, “Substituted sulfonamide compounds” (Gruenenthal GmbH, priority 2008, dated 2012).

SMILES strings stand for the structures.

Experiment [1] concerns the target T1, B1R receptor of the rat (rB1R) (Rattus norvegicus, UniProt P97583).
T1 construct: expressed in transfected cells; host or cells: CHO K1 cells (Chinese hamster ovary), stably transfected
T1 sequence (P97583 1-337): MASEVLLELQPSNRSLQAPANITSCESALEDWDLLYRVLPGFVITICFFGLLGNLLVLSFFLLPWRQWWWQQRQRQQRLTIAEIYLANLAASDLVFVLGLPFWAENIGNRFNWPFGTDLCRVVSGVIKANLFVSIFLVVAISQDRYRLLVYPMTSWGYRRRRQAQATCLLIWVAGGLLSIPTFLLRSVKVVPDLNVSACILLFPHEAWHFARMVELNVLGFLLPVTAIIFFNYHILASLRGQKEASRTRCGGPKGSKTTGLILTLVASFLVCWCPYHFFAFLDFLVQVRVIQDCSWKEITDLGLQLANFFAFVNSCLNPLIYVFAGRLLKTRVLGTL
Nature of the experiment: Functional FLIPR Ca2+ assay on the bradykinin 1 receptor, rat (rB1R CHO K1 cells). As to conditions: test substance 10 μM; CHO K1 cells transfected with rat B1R gene; agonist Des-Arg9-bradykinin at EC80; % inhibition compared with maximum achievable inhibition; read-out: B1R antagonism, rat [10 μM] % inhibition. Format: cell-based. As to the method:
(§1) The agonistic or antagonistic action of substances can be quantified on the bradykinin 1 receptor (B1R) of the human and rat species with ectopically expressing cell lines (CHO K1 cells) and with the aid of a Ca^2+-sensitive dyestuff (Fluo-4) in a fluorescent imaging plate reader (FLIPR). The figure in % activation is based on the Ca^2+ signal after addition of Lys-Des-Arg^9-bradykinin (0.5 nM) or Des-Arg^9-bradykinin (100 nM). Antagonists lead to a suppression of the Ca^2+ inflow after addition of the agonist. % inhibition compared with the maximum achievable inhibition is stated.
(§2) The agonistic or antagonistic action of substances can be determined on the bradykinin 1 receptor (B1R) of the human and rat species with the following assay. In accordance with this assay, the Ca^2+ inflow through the channel is quantified with the aid of a Ca^2+-sensitive dyestuff (type Fluo-4, Molecular Probes Europe BV, Leiden, Holland) in a fluorescent imaging plate reader (FLIPR, Molecular Devices, Sunnyvale, USA).
(§3) Chinese hamster ovary cells (CHO K1 cells) transfected stably with the human B1R gene (hB1R cells) or the B1R gene of the rat (rB1R cells) are used. For functional studies, these cells are plated out on black 96-well plates with a clear base (BD Biosciences, Heidelberg, Germany or Greiner, Frickenhausen, Germany) in a density of 20,000-35,000 cells/well. The cells are left overnight at 37° C. and 5% CO2 in culture medium (hB1R cells: Nutrient Mixture Ham's F12, Gibco Invitrogen GmbH, Karlsruhe, Germany or DMEM, Sigma-Aldrich, Taufkirchen, Germany; rB1R cells: D-MEM/F12, Gibco Invitrogen GmbH, Karlsruhe, Germany) with 10 vol. % FBS (foetal bovine serum, Gibco Invitrogen GmbH, Karlsruhe, Germany or PAN Biotech GmbH, Aidenbach, Germany). On the following day, the cells are loaded for 60 min at 37° C. with 2.13 μM Fluo-4 (Molecular Probes Europe BV, Leiden, Holland) in HBSS buffer (Hank's buffered saline solution, Gibco Invitrogen GmbH, Karlsruhe, Germany) with 2.5 mM probenecid (Sigma-Aldrich, Taufkirchen, Germany) and 10 mM HEPES (Sigma-Aldrich, Taufkirchen, Germany). The plates are then washed 2× with HBSS buffer, and HBSS buffer which additionally contains 0.1% BSA (bovine serum albumin; Sigma-Aldrich, Taufkirchen, Germany), 5.6 mM glucose and 0.05% gelatine (Merck KgaA, Darmstadt, Germany) is added. After a further incubation of 20 minutes at room temperature, the plates are inserted into the FLIPR for the Ca^2+ measurement.
(§4) Alternatively, the plates are washed with buffer A (15 mM HEPES, 80 mM NaCl, 5 mM KCl, 1.2 mM CaCl2, 0.7 mM MgSO4, 2 g/l glucose, 2.5 mM probenecid), buffer A is added and the plates are loaded with 2.5 μM Fluo-4 and 0.025% Pluronic F127 (Sigma-Aldrich, Taufkirchen, Germany). Thereafter, the cells are washed 2× with buffer A and incubated for 30 minutes with buffer A, which additionally contains 0.05% BSA and 0.05% gelatine, at room temperature and thereafter inserted into the FLIPR for the Ca^2+ measurement. The Ca^2+-dependent fluorescence is measured here before and after addition of substances (λex=488 nm, λem=540 nm). Quantification is by measurement of the highest fluorescence intensity (FC, fluorescence counts) over time.
(§5) The FLIPR protocol consists of 2 additions of substance. Test substances (10 μM) are first pipetted on to the cells and the Ca^2+ inflow is compared with the control (hB1R: Lys-Des-Arg^9-bradykinin >=50 nM; rB1R: Des-Arg^9-bradykinin 10 μM). This gives the figure in % activation based on the Ca^2+ signal after addition of Lys-Des-Arg^9-bradykinin (>=50 nM) or Des-Arg^9-bradykinin (10 μM). After incubation for 10-20 minutes, Lys-Des-Arg^9-bradykinin (hB1R) or Des-Arg^9-bradykinin (rB1R) in the concentration of the EC80 is applied and the inflow of Ca^2+ is likewise determined. Antagonists lead to a suppression of the Ca^2+ inflow. % inhibition compared with the maximum achievable inhibition is calculated. In order to determine the IC50 value, the substances are added in various concentrations. […]

Experiment [2] has as its target T2, human B1R receptor (hB1R) (Homo sapiens, UniProt P46663).
T2 construct: expressed in transfected cells; host or cells: CHO K1 cells (Chinese hamster ovary), stably transfected
T2 sequence (P46663 1-353): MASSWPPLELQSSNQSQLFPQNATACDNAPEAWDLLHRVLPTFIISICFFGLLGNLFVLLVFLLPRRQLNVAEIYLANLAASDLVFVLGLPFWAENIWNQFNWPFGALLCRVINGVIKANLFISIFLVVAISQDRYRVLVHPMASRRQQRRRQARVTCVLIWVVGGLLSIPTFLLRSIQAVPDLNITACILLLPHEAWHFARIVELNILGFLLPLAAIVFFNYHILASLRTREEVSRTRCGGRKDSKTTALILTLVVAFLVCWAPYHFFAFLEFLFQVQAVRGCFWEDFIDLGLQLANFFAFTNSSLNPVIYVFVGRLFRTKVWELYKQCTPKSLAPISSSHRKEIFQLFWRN
Nature of the experiment: Functional FLIPR Ca2+ assay on the bradykinin 1 receptor, human (hB1R CHO K1 cells). Format: cell-based. The note with it: test substance 10 μM; CHO K1 cells transfected with human B1R gene; agonist Lys-Des-Arg9-bradykinin at EC80; % inhibition compared with maximum achievable inhibition; read-out: B1R antagonism, human (10 μM] % inhibition. The protocol:
as §1, §2, §3, §4, §5

What is called inhibition is the drop in the measured response relative to a control, in per cent. Take `CN1CCN(Cc2cc3c(s2)CCN(C(=O)CC(NS(=O)(=O)c2ccc4ccccc4c2)c2ccccc2)C3)CC1` (racemic) [Example 46, N-(3-(2-((4-methylpiperazin-1-yl)methyl)-6,7-dihydrothieno[3,2-c]pyridin-5(4H)-yl)-3-oxo-1-phenylpropyl)naphthalene-2-sulfonamide]: the inhibition at 10 µM was determined as 102% in experiment [1] and 100% in experiment [2].

As for `COc1cc(C)c(S(=O)(=O)N2CCCCC2CCC(=O)N2CCc3onc(-c4ccncc4)c3C2)c(C)c1` (stereo not shown) [Example 01, 3-(1-(4-Methoxy-2,6-dimethylphenylsulfonyl)piperidin-2-yl)-1-(3-(pyridin-4-yl)-6,7-dihydroisoxazolo[4,5-c]pyridin-5(4H)-yl)propan-1-one], the inhibition at 10 µM in experiment [1] worked out at 98%; in experiment [2], 46%.

For `COc1cc(C)c(S(=O)(=O)N2CCCCC2COCC(=O)N2CCc3onc(-c4ccncc4)c3C2)c(C)c1` (stereo not shown) [Example 02, 2-((1-(4-methoxy-2,6-dimethylphenylsulfonyl)piperidin-2-yl)methoxy)-1-(3-(pyridin-4-yl)-6,7-dihydroisoxazolo[4,5-c]pyridin-5(4H)-yl)ethanone], the inhibition at 10 µM in experiment [1] worked out at 101%; in experiment [2], 100%.

With `O=C(C[C@@H](NS(=O)(=O)c1ccc2ccccc2c1)c1ccccc1)N1CCc2onc(-c3ccncc3)c2C1` [Example 03, I—N-(3-oxo-1-phenyl-3-(3-(pyridin-4-yl)-6,7-dihydroisoxazolo[4,5-c]pyridin-5(4H)-yl)propyl)naphthalene-2-sulfonamide], the inhibition at 10 µM in experiment [1] came to 102%; in experiment [2], 83%.

As for `O=C(CC1CCCCN1S(=O)(=O)c1cccc(C(F)(F)F)c1)N1CCc2onc(CN3CCCCC3)c2C1` (stereo not shown) [Example 05, 1-(3-(piperidin-1-ylmethyl)-6,7-dihydroisoxazolo[4,5-c]pyridin-5(4H)-yl)-2-(1-(3-(trifluoromethyl)phenylsulfonyl)piperidin-2-yl)ethanone], the inhibition at 10 µM in experiment [1] was determined as 27%; in experiment [2], 48%.

For the compound `Cc1cc(S(=O)(=O)N2CCCCC2CCC(=O)N2CCc3onc(CN4CCCCC4)c3C2)c(C)cc1Cl` (stereo not shown) [Example 06, 3-(1-(4-chloro-2,5-dimethylphenylsulfonyl)piperidin-2-yl)-1-(3-(piperidin-1-ylmethyl)-6,7-dihydroisoxazolo[4,5-c]pyridin-5(4H)-yl)propan-1-one], the inhibition at 10 µM in experiment [1] was found to be 57%; in experiment [2] it was 93%.

In the case of `COc1cc(C)c(S(=O)(=O)N2CCCCC2COCC(=O)N2CCc3sccc3C2c2ccc(C)cc2)c(C)c1` (stereo not shown) [Example 07, 2-((1-(4-methoxy-2,6-dimethylphenylsulfonyl)piperidin-2-yl)methoxy)-1-(4-p-tolyl-6,7-dihydrothieno[3,2-c]pyridin-5(4H)-yl)ethanone], the inhibition at 10 µM came to 104% in experiment [1] and 69% in experiment [2].

As to `COc1cc(C)c(S(=O)(=O)N2CCCCC2COCC(=O)N2CCc3sccc3C2c2cccc(C)c2)c(C)c1` (stereo not shown) [Example 08, 2-((1-(4-methoxy-2,6-dimethylphenylsulfonyl)piperidin-2-yl)methoxy)-1-(4-m-tolyl-6,7-dihydrothieno[3,2-c]pyridin-5(4H)-yl)ethanone], the inhibition at 10 µM in experiment [1] amounted to 106%; in experiment [2], 48%.

For `COc1cc(C)c(S(=O)(=O)N2CCCCC2COCC(=O)N2CCc3onc(CN4CCCCC4)c3C2)c(C)c1` (stereo not shown) [Example 09, 2-((1-(4-methoxy-2,6-dimethylphenylsulfonyl)piperidin-2-yl)methoxy)-1-(3-(piperidin-1-ylmethyl)-6,7-dihydroisoxazolo[4,5-c]pyridin-5(4H)-yl)ethanone], the results for the inhibition at 10 µM in experiment [1] and in experiment [2] were 105% and 100%, respectively.

Consider `Cc1cccc(C2c3ccsc3CCN2C(=O)CCC2CCCCN2S(=O)(=O)c2cc(C)c(Cl)cc2C)c1` (stereo not shown) [Example 10, 3-(1-(4-chloro-2,5-dimethylphenylsulfonyl)piperidin-2-yl)-1-(4-m-tolyl-6,7-dihydrothieno[3,2-c]pyridin-5(4H)-yl)propan-1-one], for which the values for the inhibition at 10 µM in experiment [1] and in experiment [2] were 105% and 78%, respectively.

With `Cc1cc(S(=O)(=O)N2CCCCC2CCC(=O)N2CCc3sccc3C2c2ccccc2C)c(C)cc1Cl` (stereo not shown) [Example 11, 3-(1-(4-chloro-2,5-dimethylphenylsulfonyl)piperidin-2-yl)-1-(4-o-tolyl-6,7-dihydrothieno[3,2-c]pyridin-5(4H)-yl)propan-1-one], the inhibition at 10 µM is 60% in experiment [1] and 7% in experiment [2].

As for `COc1cc(C)c(S(=O)(=O)N2CCCCC2COCC(=O)N2CCc3sccc3C2c2ccccc2C)c(C)c1` (stereo not shown) [Example 12, 2-((1-(4-methoxy-2,6-dimethylphenylsulfonyl)piperidin-2-yl)methoxy)-1-(4-o-tolyl-6,7-dihydrothieno[3,2-c]pyridin-5(4H)-yl)ethanone], the inhibition at 10 µM in experiment [1] amounted to 104%; in experiment [2], 64%.

Take `COc1cc(C)c(S(=O)(=O)N(C)CCOCC(=O)N2CCc3onc(CN4CCCCC4)c3C2)c(C)c1` [Example 13, 4-methoxy-N,2,6-trimethyl-N-(2-(2-oxo-2-(3-(piperidin-1-ylmethyl)-6,7-dihydroisoxazolo[4,5-c]pyridin-5(4H)-yl)ethoxy)ethyl)benzenesulfonamide]: the inhibition at 10 µM in experiment [1] was found to be 99%; in experiment [2], 56%.

As to `COc1cc(C)c(S(=O)(=O)N2CCCCC2COCC(=O)N2CCc3onc(C(=O)N4CCCCC4)c3C2)c(C)c1` (stereo not shown) [Example 14, 2-((1-(4-methoxy-2,6-dimethylphenylsulfonyl)piperidin-2-yl)methoxy)-1-(3-(piperidin-1-carbonyl)-6,7-dihydroisoxazolo[4,5-c]pyridin-5(4H)-yl)ethanone], the inhibition at 10 µM in experiment [1] was determined as 99%; in experiment [2], 85%.
